Reference: US6335159B1 (The Burnham Institute, priority 1988, dated 2002)

How the values were obtained:
Type in all cases: cell-based
[1] = test system: endogenous F9 cell RAR; assay: CAT assay: reporter plasmid only transfected into F9 cells (endogenous RAR); details: for induction of CAT activity: G17-2 construct alone
Excerpt: Two different TREs, one the natural myosin heavy chain (MHC) promoter TRE, Izumo, S., et al., Nature, 334, 539 (1988), and the other a synthetic TRE—G17-2—derived from the rat growth hormone promoter, Glass, C. K., et al., Cell, 54, 313-323 (1988), were chosen, both references are incorporated herein by reference. The estrogen responsive element (ERE) used here is derived from the vitellogenin gene, Klein-Hitpass, L., et al., Cell 46, 1053-1061 (1986). As a convenient assay system a cotransfection CAT assay (chloramphenicol transacetylase) was chosen. When. […] Upon induction, MHC and G17-2-TRE constructs yield very similar levels of CAT activity. However, the MHC-TRE-CAT gene is highly constitutive (high basal level activity) whereas the G17-2 construct functions as an ideal RA inducible gene in that we observe a low basal activity and a more than 30 fold induction of CAT activity by RA (FIG. 6a and b). Similar levels of induction were obtained with TRα. F9 cells have been established as a cellular model for RA dependent differentiation and to contain RAR transcripts. Whether the endogenous F9 RAR can also activate the TRE-CAT genes, by transfecting the […] into F9 cells alone was investigated. […] The high basal level observed with the MHC construct prevents observation of a clear induction effect by the endogenous RAR. […]
F9 cells were cotransfected with 5 μg of the expression vectors PECE-RARε or PECE-TRα and 20 μg of the reporter plasmids G17-2 CAT or MHC-CAT. […] Fold activation is expressed as the ratio of relative CAT activity after hormone induction to relative CAT activity without hormone induction. […]
2×10^6 F9 cells were cultured as monolayer on gelatin-coated dishes in alpha-MEM (GIBCO, Santa Clara, Calif.), supplemented by 20% fetal calf serum (FCS), glutamine: and nucleosides as described in Grover, A., et al., J. Cell Biol. 96, […] (1983) which is incorporated herein by reference. […] For accurate determinations of chloramphenicol acetylation, the separated reaction products were cut out from silica plates and quantified in a scintillation counter. […]

[2] = test system: TR and RAR (RARε plus TRα or TRβ); assay: Cotransfection CAT assay: TR and RARε together with TRE-CAT gene (G17-2 CAT) in F9 and CV-1 cells; details: only T3 added, TR and RAR cotransfected
Procedure: One possible implication of this finding is that certain genes should be inducible by either hormone (T3) or vitamin (RA) in cells containing both receptors. To zest this hypothesis and to investigate possible positive and/or negative interactions of TR and RAR, both receptors were cotransfected into the same cells together with a TRE-CAT gene. […] Approximately 70% of the maximal activity is observed when only T3 is added. […] In the absence of T3, TR prevents activation of TREs by RARs, while in the presence of T3, TR activates and also allows positive cooperativity with RAR. The dominating regulatory effect can be carried out by both TRα and TRβ on both the RARε (FIG. 9) and the F9 endogenous RAR. Significant repression of RARε activity in F9 cells is observed between RARε: TRα ratios of 1:1 to 4:1.
As shown in FIG. 9(a), 5 μg of PECE-RARε plus 5 μg of PECE-TRα were cotransfected together with 20 μg of G17-2 CAT into F9 cells. As a control, each receptor was also cotransfected with G17-2 CAT individually. Hormones were added as indicated. As shown in FIG. 9(b), 2.5 μg of PECE-TRβ plus 2.5 μg of PECE-RARε were cotransfected with 20 μg of G17-2 CAT into CV-1 cells. As a control, PECE-RARε was also cotransfected with G17-2 individually. Hormones were added as indicated. CAT activity was assayed as described in Example VI.

[3] = biological target: T1, RAER chimaeric protein (RARε with hER DNA-binding domain) (Homo sapiens, UniProt P10826, DEL77-136/INS76TNDKGSMAMESAKETRYCAVCNDYASGYHYGVWSCEGCKAFFKRSIQGHNDYMCPATNQCTIDKNRRKSCQAC); assay: Co-transfection CAT assay: RAER chimaeric receptor plus ERE-CAT reporter gene in HeLa cells; details: only at high concentrations (3×10^−6 M)
T1 construct: a 304 bp 5′ untranslated region, the complete open reading frame, and a 55 bp 3′ untranslated region; expressed in transfected cells; host or cells: HeLa cells, PECE-RAER expression vector
T1 sequence (P10826 with tags, fused parts or gaps isoform P10826-2): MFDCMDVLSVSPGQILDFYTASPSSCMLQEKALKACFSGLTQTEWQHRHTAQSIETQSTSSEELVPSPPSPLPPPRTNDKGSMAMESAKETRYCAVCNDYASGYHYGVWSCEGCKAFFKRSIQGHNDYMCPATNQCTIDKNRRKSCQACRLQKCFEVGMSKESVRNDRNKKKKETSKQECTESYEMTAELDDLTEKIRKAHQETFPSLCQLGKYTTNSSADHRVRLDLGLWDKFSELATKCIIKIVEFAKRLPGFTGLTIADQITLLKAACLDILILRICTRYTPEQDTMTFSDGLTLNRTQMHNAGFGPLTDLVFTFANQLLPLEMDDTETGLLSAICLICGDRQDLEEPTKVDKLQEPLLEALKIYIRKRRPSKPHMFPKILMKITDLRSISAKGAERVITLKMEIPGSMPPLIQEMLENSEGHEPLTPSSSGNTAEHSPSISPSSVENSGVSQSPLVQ
Procedure: The hybrid receptor was then transfected into susceptible tissue-culture cells together with a reporter gene containing the relevant HRE. The effect of various potential activators of the novel receptor was measured from cells transiently transfected with both genes and grown in the presence and absence of the various ligands.
As a control, cells were treated with calcium phosphate or were transfected with the constitutive pSV2CAT vector. As further controls, cells were also transfected with ERE-CAT and ERE-CAT plus the oestrogen receptor (ER) expression vector pckR2ER and grown in the presence of Est.
After 5 hours, cells were shocked with 10% glycerol for 2 min. Eighteen hours after the start of transfection, steroid hormones or retinoids were added to the medium and cells were incubated for a further 24 hours before harvesting.

N[C@@H](Cc1cc(I)c(Oc2ccc(O)c(I)c2)c(I)c1)C(=O)O [T3]
induction of CAT activity ([1]; F9 cells, in the presence of T3): no induction | CAT activity, percent of the maximal activity [2]: Approximately 70%

CC1=C(/C=C/C(C)=C/C=C/C(C)=C/C=O)C(C)(C)CCC1 [retinal]
induction of CAT gene expression [3]: some inducing effect

CC1=C(/C=C/C(C)=C/C=C/C(C)=C/C(=O)O)C(C)(C)CCC1 [retinoic acid]
induction of CAT activity ([1]; endogenous F9 RAR, in the presence of RA): 12 fold | RA concentration at which TRE dependent CAT activity can be induced ([1]; G17-2 construct, F9 RAR, RA tested between 3×10^−11 and 10^−6 M): ~0.1 nM

CC1=C(/C=C/C(C)=C/C=C/C(C)=C/CO)C(C)(C)CCC1 [retinol]
induction of CAT gene expression [3]: some inducing effect
